Measurements from ChEMBL document CHEMBL1147843, “Synthesis of a novel C2-aryl pyrrolo[2,1-c][1,4]benzodiazepine-5,11-dione library: effect of C2-aryl substitution on cytotoxicity and non-covalent DNA binding” (2007).

Experiments:
DNA [1] = assay: Binding affinity to calf thymus DNA at 20 uM after 4 hrs by thermal denaturation assay; type: nucleic-acid assay; details: Bos taurus
DNA [2] = assay: Binding affinity to calf thymus DNA at 20 uM after 72 hrs by thermal denaturation assay; type: nucleic-acid assay; details: Bos taurus
A498 = assay: Growth inhibition of human A498 cells after 48 hrs by sulforhodamine B assay relative to control; type: functional; details: A498, 48 h
NCI-H460 = assay: Cytotoxicity against human NCI-H460 cells assessed as cell growth at 50 uM after 48 hrs by Alamar Blue assay relative to control; type: functional; details: NCI-H460, 48 h, read-out: Activity
NCI = assay: Growth inhibition of human NCI 60 cells after 48 hrs by sulforhodamine B assay relative to control; type: functional
DNA [3] = assay: Binding affinity to calf thymus DNA at 20 uM after 18 hrs by thermal denaturation assay; type: nucleic-acid assay; details: Bos taurus
SF-268 = assay: Cytotoxicity against human SF268 cells assessed as cell growth at 50 uM after 48 hrs by Alamar Blue assay relative to control; type: functional; details: SF-268, 48 h, read-out: Activity
MCF7 = assay: Cytotoxicity against human MCF7 cells assessed as cell growth at 50 uM after 48 hrs by Alamar Blue assay relative to control; type: functional; details: MCF7, 48 h, read-out: Activity

SMILES	ΔTm (DNA [1]) [°C]	ΔTm (DNA [2]) [°C]	GI50 (A498) [µM]	growth at 50 µM (NCI-H460) [%]	GI50 (NCI) [µM]	ΔTm (DNA [3]) [°C]	growth at 50 µM (SF-268) [%]	growth at 50 µM (MCF7) [%]
O=C1Nc2ccccc2C(=O)N2C=C(c3ccc(Br)cc3)C[C@@H]12	2	2.1	0.51	20	7.41	2	109	61
O=Cc1ccc(C2=CN3C(=O)c4ccccc4NC(=O)[C@@H]3C2)cc1	1.5	1.5	–	–	–	1.4	–	–
O=C1Nc2ccccc2C(=O)N2C=C(c3ccc(Cl)c(Cl)c3)C[C@@H]12	2.1	2.2	> 50	5	46.8	2.2	86	51
Cc1ccc2c(c1O)NC(O)C1CC(/C=C/C(N)=O)=CN1C2=O (stereo not drawn) [ANTHRAMYCIN]	–	–	0.195	–	0.029	–	–	–
O=C1Nc2ccccc2C(=O)N2C=C(c3cccc([N+](=O)[O-])c3)C[C@@H]12	0.9	1	–	–	–	1	–	–
O=C1Nc2ccccc2C(=O)N2C=C(c3cccc4ccccc34)C[C@@H]12	2.3	2.4	3.16	29	14.8	2.3	73	42
O=C1Nc2ccccc2C(=O)N2C=C(c3ccccc3)C[C@@H]12	1.5	1.6	–	–	–	1.5	–	–
Nc1ccc(C2=CN3C(=O)c4ccccc4NC(=O)[C@@H]3C2)cc1	1.1	1.1	–	–	–	1.1	–	–
